Reference: patent US20250326799A1, “AGENTS INDUCING VASCULARISATION” (Coegin Pharma AB, priority 2022, published 2025)
Entries after “also recorded” stand apart in the source; their conditions may differ.

Experiments:
Type in all cases: cell-based
[1] = tested on: human umbilical vascular endothelial cells (HUVECs); test: In vitro scratch wound closure, HUVECs; settings: for wound closure rate (scratch injury): HUVECs, increasing concentration of peptide
Protocol: The impact of FOL-026 peptide on human umbilical vascular endothelial cells (HUVECs) proliferation (FIG. 18a) and apoptosis (FIG. 18c) induced with low-oxygen condition was determined by BrdU uptake (n=8-9 per group) and active caspase-3/-7 (n=7-10 per group) separately. The ROS level (FIG. 18b) activated by 50 ug/ml oxidized Low-density Lipoprotein (oxLDL) for 2 hours in cells pre-incubated with FOL-026 peptides was assessed using H2O2 measurement (n=4-8 per group). Representative pictures of endothelial migration into an in vitro scratch injury were shown (FIG. 19a) and the wound closure rate (FIG. 19b) in HUVECs stimulated with increasing concentration of FOL-026 peptide was quantified by image J software (n=8-9 per group). Scale bar=150 um. Data are presented as means±SEM and acquired from 3 to 4 independent replicate tests. *P<0.05, **P<0.01, ****P<0.0001 by one-way ANOVA and Dunnett's post-hoc test.
The efficiency of small interfering RNA transfection for 48 hours in HUVECs was confirmed by qRT-PCR (n=4) (FIG. 22a). Effect of FOL-026 peptide stimulation on cell proliferation (FIG. 22b) and cell apoptosis at 0.1% oxygen (FIG. 22c) in HUVECs transfected with siRNA-NC or siNRP-1 was evaluated by BrdU incorporation (n=4-7 per group) and active caspase-3/-7 ((n=4-7 per group). Representative pictures of endothelial cells at 0 and 5 hours after scratch wounding are shown in 23a. The wound closure rate (FIG. 23b) of siRNA-NC/siNRP-1-transfected HUVECs stimulated with increasing concentration of FOL-026 peptide was quantified by image J software (n=9-12 per group). Scale bar=150 um. Data are presented as means±SEM and acquired from 3 to 4 independent replicate tests. *P<0.05, **P<0.01, ***P<0.001, ****P<0.0001 by Student's t test for A, two-way ANOVA followed with Sidak's and Dunnett's multiple comparisons test for B, C and E.
The effect of FOL-005 peptide on smooth muscle cell proliferation (FIG. 30a) was determined with BrdU incorporation in peptide-treated human coronary smooth muscle cells (HCASMCs). […]

[2] = tested on: Human umbilical cord endothelial cells (HUVECs); test: Endothelial tube formation on Geltrex matrix; settings: for tube formation (total length, master segments, branching, segments length): HUVECs treated with peptide; for endothelial tube formation / endothelial tube formation after NRP-1 knock-down: HUVECs; for endothelial tube formation: 10 nM, 100 nM, 1000 nM, compared to control; for endothelial tube formation after NRP-1 knock-down: siRNA-NC or siNRP-1 group, then rising dose of peptide
Protocol: Cells were transfected for 48 hours or performed with 0.5% supplement starvation for 24 hours on 6-well plates as described above and dissociated by Accutase (Gibco, USA) to obtain cell suspension. Geltrex reduced growth factor basement membrane matrix ((Invitrogen, CA, USA) was thawed at 4° C. overnight and added into a 96-well plate (50 µl/well) next. The coated 96-well plate was placed in the incubator more than 30 mins for further use and the cell suspension was seeded into it at a density of 1.5 x 10^4/well. For NRP-1 silencing experiments, cells were cultured with complete medium. For polypeptide treatment experiments, cells were stimulated with complete medium plus the different concentration of polypeptide. For NRP-1 rescued experiments, cells transfected with siRNA were cultured with complete medium and NRP-1 stimulations. After a 24-hour incubation, images were recorded by an inverted microscope (Nikon, Eclipse TE2000-U, Japan) and the sum length of master segments of vessels in each image were quantified using Angiogenesis Analyzer plug-in ImageJ software program (pixel/unit). Data were analyzed with photographs from 8-14 wells per condition.
(§1) Human umbilical cord endothelial cells were first treated with a scramble non-coding siRNA (NC) or siRNA for NRP-1, subsequently treated with FOL26 in concentrations of 10 nM, 100 nM, and 1000 nM, and endothelial tube formation and the total master segemnts were measured using ImageJ. gene expression of PECAM-1 (CD31) analyzed.
Quantified measurement of total length (FIG. 20b), total master segments length (FIG. 20c), total branching length (FIG. 20d) and total segments length (FIG. 20e) were performed to evaluate angiogenesis in vitro (n=7 per group for FIG. 29 b-e). The quantification of vessel density was assessed with CD31+ positive area (FIG. 21a, n=13 per group). Western blot analysis of phosphorylated AKT (pAKT-T308), AKT, phosphorylated ERK1/2 (p-ERK1/2) and ERK1/2 in endothelial cells stimulated with FOL-26 peptides for 48 hours (FIG. 21b). Quantification of phosphorylation intensities normalized to respective total expressions (FIG. 21c-d, n=3 per group).
Tube formation with rising dose of FOL-026 peptide treatment in siRNA-NC or siNRP-1 group (FIG. 24a) and total length (FIG. 24b), total master segments length (FIG. 24c), total branching length (FIG. 24d) and total segments length (FIG. 24e) was calculated using Angiogenesis Analyzer plug-in ImageJ (n=7-12 per group). Scale bar=150 um. Data are presented as means±SEM and acquired from 3 to 4 independent replicate tests. *P<0.05, **P<0.01, ***P<0.001, ****P<0.0001 by two-way ANOVA followed with Sidak's and Dunnett's multiple comparisons test.
Quantified measurement of total master segments length FIG. 31b was used to evaluate angiogenesis in vitro (n=7 per group). Scale bar=150 um.

[3] = tested on: Human umbilical cord endothelial cells (HUVECs); test: Gene expression by PCR in endothelial cells; settings: for expression of PECAM-1 (CD31): HUVECs
Protocol: as §1
Cells on 6-well plates were washed with cold DPBS (Gibco, USA) and homogenized in Trizol reagent (Invitrogen, CA, USA). Total RNA was extracted using PureLink RNA Mini Kit (Invitrogen, CA, USA), followed by nucleic acid quantification with NanoDrop 2000c (Thermo Fisher Scientific, USA). To determine mRNA expression of target genes, real-time qPCR was performed using by KAPA SYBR FAST One-Step qRT-PCR Master Mix Kit (KAPA Biosystems, USA) on LightCycler480 system (Roche, Mannheim, Germany). All primers were purchased from miScript Primer Assays (Qiagen, Valencia, CA) and GAPDH mRNA expression of each sample was used for normalization. Cells on 6-well plates were washed with cold DPBS and lysed with the mixture of lysis buffer and protease inhibitors on ice, then centrifuged at 15,000 g for 20 min at 4° C. Supernatant was performed to measure the protein concentration using BCA Protein Assay Kit (Thermo Fisher Scientific, USA). Protein sample was loaded onto SDS-PAGE gels and separated with electrophoresis, followed by transferred to PVDF membranes (Millipore, USA). Membranes were blocked with 5% nonfat milk. Primary antibodies (Abcam, UK) and secondary antibodies were performed to incubate with membranes at 4° C. overnight and at room temperature for 1 hour respectively. […]

| Sequence | wound closure rate (scratch injury) [1] | tube formation (total length, master segments, branching, segments length) [2] | endothelial tube formation [2] | expression of PECAM-1 (CD31) ([3]; 10 nM, 100 nM, 1000 nM tested) | wound closure rate after NRP-1 knock-down ([1]; siRNA-NC/siNRP-1-transfected HUVECs, increasing concentration, 5 hours) | endothelial tube formation after NRP-1 knock-down [2] | endothelial tube formation after NRP-1 knock-down ([2]; listed as FOL26) | endothelial tube formation ([2]; listed as FOL26) | expression of PECAM-1 (CD31) ([3]; 100 nM and 1000 nM) | angiogenesis related genes ([3]; endothelial cells) |
| --- | --- | --- | --- | --- | --- | --- | --- | --- | --- | --- |
| VDTYDGDISVVYGLR [FOL-005] | accelerate HUVEC wound closure | increases the tube formation |  |  |  |  |  |  |  |  |
| AEIDSIELSYGIK [FOL56] |  |  | significantly increased tube formation; also recorded: increased tube formation at all concentrations | increased expression of PECAM-1 |  |  |  |  |  |  |
| VDTYDGGISVVYGLR [FOL-026] | accelerates HUVEC wound closure | positive effect |  | increased expression of PECAM-1 | positive effect on wound closure | induce tube formation | increased tube formation compared to control in a NRP-1 dependent way | significantly increased tube formation; also recorded: increased tube formation compared to control | increased | induces upregulation |
